This passage reports MIC, CD50 and oral antibacterial activity results from patent US4094979A, “Orally active cephalosporins” (American Home Products Corporation, priority 1976, dated 1978).

Test [1] relates to Kl Pn 10031. Briefly: in vitro agar serial dilution, MIC. It counts as cell-based. The conditions noted are these: strain 10031.
Test [2] relates to Es Co 9637. Put plainly: in vitro agar serial dilution, MIC. It counts as cell-based. The conditions noted are these: strain 9637.
Test [3] concerns Sa Pa 11737. Briefly: in vitro agar serial dilution, MIC. It counts as cell-based. The conditions noted are these: strain 11737.
Test [4] concerns Ps Ae 10145. Briefly: in vitro agar serial dilution, MIC. The conditions noted are these: strain 10145. It counts as cell-based.
Test [5] relates to St Au Smith. Put plainly: in vitro agar serial dilution, MIC. The class given is cell-based. The conditions noted are these: strain Smith.
Test [6] has as its system Pr Mi 9921. Put plainly: in vitro agar serial dilution, MIC. The class given is cell-based. The conditions noted are these: strain 9921.
Test [7] concerns Ne Ca 819. Put plainly: in vitro agar serial dilution, MIC. The class given is cell-based. The conditions noted are these: strain 819.
The subject of test [8] is St Au CHP. Briefly: in vitro agar serial dilution, MIC. The class given is cell-based. The conditions noted are these: strain CHP.
The test system of test [9] is St Au 53-180. Put plainly: in vitro agar serial dilution, MIC. It counts as cell-based. The conditions noted are these: strain 53-180.
The test system of test [10] is Es In 65-1. Briefly: in vitro agar serial dilution, MIC. The class given is cell-based. The conditions noted are these: strain 65-1.
The test system of test [11] is My Sm 10143. Put plainly: in vitro agar serial dilution, MIC. The class given is cell-based. The conditions noted are these: strain 10143.
Test [12] deals with E. Coli (920). Put plainly: oral antibacterial activity in intraperitoneally infected CD-1 mice. The class given is in vivo. On the procedure: (§1) The oral antibacterial activity of the compounds of this invention was establihsed by intraperitoneally infecting four groups of 10 male mice CD-1 strain weighing 17-19 grams with 0.5 milliliter of a standardized suspension of bacterium in 5 percent gastric mucin. The animals were then randomized and at 6 hours post infection a single dose of the antibacterial compound being tested was given orally at 7.2, 3.6, 1.8 and 0.9 mg/mouse to each group of 10 mice.
(§2) Testing against E. Coli (920-LD95), as a general representative of gram-negative bacteria, was followed by testing against Proteus vulgaris (347) as an example of a special application against a gram negative bacterium. In the oral anti-bacterial activity test, an arbitrary maximum dose is set at 7.2 milligrams per mouse below which activity must be found before a compound is considered orally active. The arbitrary maximum dose of 7.2 milligrams per mouse represents a practical dose limit in terms of the potency of known orally active antibacterial agents.

The test system of test [13] is Proteus vulgaris (347). Described as above. The class given is in vivo. The method, then: as §1, §2
Test [14] concerns St Au (Smith). The test is described as above. It counts as in vivo. The method, then: as §1, §2
The subject of test [15] is St Au 6538P. Put plainly: in vitro agar serial dilution, MIC. The class given is cell-based. The conditions noted are these: strain 6538P.
The test system of test [16] is En Ae 13048. Put plainly: in vitro agar serial dilution, MIC. The class given is cell-based. The conditions noted are these: strain 13048.
Test [17] concerns Kl Pn. Put plainly: oral antibacterial activity in intraperitoneally infected CD-1 mice. The class given is in vivo. The conditions noted are these: P.O., single dose 6 hours post infection, 14 days. On the procedure:
as §1, §2

Test [18] relates to Pr Mi. The test is described as above. It counts as in vivo. The conditions noted are these: P.O., single dose 6 hours post infection, 14 days. The method, then: as §1, §2
Test [19] relates to St Py. The description is as above. It counts as in vivo. The conditions noted are these: P.O., single dose 6 hours post infection, 14 days. On the procedure: as §1, §2
Test [20] concerns E. Coli (E-2). The test is described as above. It counts as in vivo. On the procedure: as §1, §2
For test [21], the system named is E. Coli (E-3). The description is as above. The class given is in vivo. On the procedure:
as §1, §2

Test [22] has as its system E. Coli W-102. The description is as above. The conditions noted are these: E. Coli W-102, at 7.2 mg/mouse. It counts as in vivo. The method, then: as §1, §2
[23] abbreviates: E. Coli, P.O., single dose 6 hours post infection, 14 days.
Where [24] appears, read: Pr Bu, P.O., single dose 6 hours post infection, 14 days.
The mark [25] stands for this setting: P.O., single dose 6 hours post infection, 14 days.

The structures appear in SMILES notation. In brackets after ≈: the same amount, converted by molar mass. Counter-ions that a name gives are not always drawn. Bounds are passed on as bounds.

The term MIC denotes the lowest concentration found to suppress growth. Read a low MIC as inhibition by little substance. Regarding `Cn1nnnc1SCC1=C(C(=O)O)N2C(=O)C(NC(=O)CCN3C(=O)CSC3=S)C2SC1` (stereo not drawn) [Example 1 acid], the MIC in [1] came to 3.9 µg/mL (≈ 7.56 µM); in test [2] it was 3.9 µg/mL (≈ 7.56 µM); in test [3], 0.97 µg/mL (≈ 1.88 µM); in [4] it was 250 µg/mL (≈ 485 µM); in test [5], 1.95 µg/mL (≈ 3.78 µM); in test [6], 0.97 µg/mL (≈ 1.88 µM). Besides, the MIC was 31.3 µg/mL (≈ 60.7 µM) in test [7]; 7.81 µg/mL (≈ 15.1 µM) in [8]; 3.9 µg/mL (≈ 7.56 µM) in test [9]; 62.5 µg/mL (≈ 121 µM) in test [10]; 250 µg/mL (≈ 485 µM) in test [11]; 1.95 µg/mL (≈ 3.78 µM) in [15]. In test [16], this compound had an MIC of 250 µg/mL (≈ 485 µM). The CD50 in test [12] (E. Coli (920), buffered to pH 4.9 in aqueous solution) turned out to be 2.97 mg/mouse; in test [13] (Pr vulgaris (Pr-347), buffered to pH 4.9 in aqueous solution) it was 5.97 mg/mouse; in [14] (buffered to pH 4.9 in aqueous solution), 2.73 mg/mouse.

Turning to `Cn1nnnc1SCC1=C(C(=O)O)N2C(=O)C(NC(=O)CCN3C(=O)CSC3=S)C2SC1` (stereo not drawn) [Ex. 1-Na salt], the CD50 in test [12] (setting [23]) is recorded as 2.35 mg/mouse; in test [17], 1.36 mg/mouse; in test [13] (setting [24]) it was 5.97 mg/mouse; in [14] (setting [25]) it was 2.73 mg/mouse; in [18], 4.49 mg/mouse; in test [19] it was greater than 3.6 mg/mouse.

As for `CC1=C(C(=O)O)N2C(=O)[C@@H](NC(=O)[C@H](N)C3=CCC=CC3)[C@H]2SC1` [Cephradine, reference compound], the CD50 in test [12] (setting [23]) is 2.27 mg/mouse; in test [17], 2.42 mg/mouse; in test [13] (setting [24]) it was 6.52 mg/mouse; in test [14] (setting [25]), 0.140 mg/mouse; in test [18], 2.25 mg/mouse; in test [19], less than 0.45 mg/mouse.

On to `Cn1nnnc1SCC1=C(C(=O)O)N2C(=O)C(NC(=O)CCN3C(=O)CSC3=S)C2SC1` (stereo not drawn), for which the CD50 in test [12] (E. Coli (920), oral) is given as 3.05 mg/mouse; in test [13] (Pr vulgaris (347), oral), 5.90 mg/mouse; in [20], 3.30 mg/mouse; in test [21] it was 2.12 mg/mouse. The oral antibacterial activity entry in test [22] is “inactive”.
